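Dose response: 5 concentrations. Exposure: 48 h. Format: 96-well plates. Endpoint: linear interpolation; highest concentration if not reached. GI50: concentration for 50% inhibition of growth.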 The source made the active and inactive calls. No stated cut-off is given here; in the data, active = GI50 up to about 1.1 µM and inactive = higher.
How the values were obtained:
Assay in all cases: growth of human tumour cells (NCI), 48 h
786-0 = tested on: 786-0
A549 = tested on: A549
ACHN = tested on: ACHN
CAKI-1 = tested on: CAKI-1
CCRF-CEM = tested on: CCRF-CEM
COLO 205 = tested on: COLO 205
DLD-1 = tested on: DLD-1
DMS-114 = tested on: DMS-114
DMS-273 = tested on: DMS-273
HCC 2998 = tested on: HCC 2998
HCT-116 = tested on: HCT-116
HCT-15 = tested on: HCT-15
HL-60 = tested on: HL-60
HOP-62 = tested on: HOP-62
HOP-92 = tested on: HOP-92
HT-29 = tested on: HT-29
IGROV-1 = tested on: IGROV-1
K562 = tested on: K562
KM-20L2 = tested on: KM-20L2
KM12 = tested on: KM12
LXFL 529 = tested on: LXFL 529
M14 = tested on: M14
M19-MEL = tested on: M19-MEL
MOLT-4 = tested on: MOLT-4
Malme-3M = tested on: Malme-3M
NCI-H226 = tested on: NCI-H226
NCI-H23 = tested on: NCI-H23
NCI-H460 = tested on: NCI-H460
NCI-H522 = tested on: NCI-H522
OVCAR-3 = tested on: OVCAR-3
OVCAR-4 = tested on: OVCAR-4
OVCAR-5 = tested on: OVCAR-5
OVCAR-8 = tested on: OVCAR-8
RPMI-8226 = tested on: RPMI-8226
SF-268 = tested on: SF-268
SF-295 = tested on: SF-295
SF-539 = tested on: SF-539
SK-MEL-28 = tested on: SK-MEL-28
SK-MEL-2 = tested on: SK-MEL-2
SK-MEL-5 = tested on: SK-MEL-5
SNB-19 = tested on: SNB-19
SNB-75 = tested on: SNB-75
SR = tested on: SR
SW-620 = tested on: SW-620
TK-10 = tested on: TK-10
U-251 = tested on: U-251
UACC-257 = tested on: UACC-257
UACC-62 = tested on: UACC-62
UO-31 = tested on: UO-31
XF498 = tested on: XF498
A498 = tested on: A498
EKVX = tested on: EKVX
LOX IMVI = tested on: LOX IMVI
RXF 393 = tested on: RXF 393
SK-OV-3 = tested on: SK-OV-3
SN12C = tested on: SN12C
SNB-78 = tested on: SNB-78

Q: With `CC(C#N)c1cn(S(=O)(=O)c2ccccc2)c2ccccc12` (centres undefined) as the molecule, how does the GI50 (786-0) read?
A: > 100 µM (inactive)

Q: What about the GI50 (A549) of the same molecule?
A: 36.5 µM (inactive)

Q: What about the GI50 (ACHN) of the same molecule?
A: 33.3 µM (inactive)

Q: And the GI50 (CAKI-1)?
A: 34.6 µM (inactive)

Q: What about the GI50 (CCRF-CEM) of the same molecule?
A: 48.8 µM (inactive)

Q: What about the GI50 (COLO 205) of the same molecule?
A: > 100 µM (inactive)

Q: And the GI50 (DLD-1)?
A: 55.3 µM (inactive)

Q: What about the GI50 (DMS-114) of the same molecule?
A: 46.5 µM (inactive)

Q: And the GI50 (DMS-273)?
A: 45.6 µM (inactive)

Q: And the GI50 (HCC 2998)?
A: 76.7 µM (inactive)

Q: And the GI50 (HCT-116)?
A: 40.1 µM (inactive)

Q: What about the GI50 (HCT-15) of the same molecule?
A: 53.6 µM

Q: What about the GI50 (HL-60) of the same molecule?
A: 26 µM (inactive)

Q: And the GI50 (HOP-62)?
A: 37.5 µM (inactive)

Q: What about the GI50 (HOP-92) of the same molecule?
A: 12.4 µM (inactive)

Q: And the GI50 (HT-29)?
A: > 100 µM (inactive)

Q: What about the GI50 (IGROV-1) of the same molecule?
A: 78.5 µM (inactive)

Q: And the GI50 (K562)?
A: 39.8 µM (inactive)

Q: What about the GI50 (KM-20L2) of the same molecule?
A: 67.8 µM (inactive)

Q: What about the GI50 (KM12) of the same molecule?
A: 72.1 µM (inactive)

Q: And the GI50 (LXFL 529)?
A: 34.9 µM (inactive)

Q: What about the GI50 (M14) of the same molecule?
A: 33.7 µM (inactive)

Q: And the GI50 (M19-MEL)?
A: 42.5 µM (inactive)

Q: What about the GI50 (MOLT-4) of the same molecule?
A: 35.9 µM (inactive)

Q: What about the GI50 (Malme-3M) of the same molecule?
A: 35.7 µM (inactive)

Q: And the GI50 (NCI-H226)?
A: 25.7 µM (inactive)

Q: And the GI50 (NCI-H23)?
A: 39.9 µM (inactive)

Q: And the GI50 (NCI-H460)?
A: 61.7 µM (inactive)

Q: What about the GI50 (NCI-H522) of the same molecule?
A: 27.7 µM (inactive)

Q: And the GI50 (OVCAR-3)?
A: 53.1 µM (inactive)

Q: What about the GI50 (OVCAR-4) of the same molecule?
A: 34 µM (inactive)

Q: And the GI50 (OVCAR-5)?
A: > 100 µM (inactive)

Q: What about the GI50 (OVCAR-8) of the same molecule?
A: 80.7 µM (inactive)

Q: What about the GI50 (RPMI-8226) of the same molecule?
A: 38.5 µM (inactive)

Q: What about the GI50 (SF-268) of the same molecule?
A: 82.8 µM (inactive)

Q: What about the GI50 (SF-295) of the same molecule?
A: 34.4 µM (inactive)

Q: And the GI50 (SF-539)?
A: 68.1 µM (inactive)

Q: And the GI50 (SK-MEL-28)?
A: 60.7 µM (inactive)

Q: What about the GI50 (SK-MEL-2) of the same molecule?
A: 37.1 µM (inactive)

Q: And the GI50 (SK-MEL-5)?
A: 16.2 µM (inactive)

Q: What about the GI50 (SNB-19) of the same molecule?
A: 42.9 µM (inactive)

Q: And the GI50 (SNB-75)?
A: 8.95 µM (inactive)

Q: And the GI50 (SR)?
A: 30.8 µM (inactive)

Q: What about the GI50 (SW-620) of the same molecule?
A: > 100 µM (inactive)

Q: What about the GI50 (TK-10) of the same molecule?
A: > 100 µM (inactive)

Q: And the GI50 (U-251)?
A: > 100 µM (inactive)

Q: And the GI50 (UACC-257)?
A: 31.3 µM (inactive)

Q: What about the GI50 (UACC-62) of the same molecule?
A: 55.1 µM (inactive)

Q: And the GI50 (UO-31)?
A: 15.8 µM (inactive)

Q: And the GI50 (XF498)?
A: > 100 µM (inactive)

Q: Which results are given for `O=C(CCN1CCCCC1CO)Nc1ccc2c(c1)C(=O)c1ccc(NC(=O)CCN3CCCCC3CO)cc1C2=O` (centres undefined)?
A: GI50 (786-0): 1.98 µM (inactive); GI50 (A498): 2.25 µM (inactive); GI50 (A549): 27.9 µM (inactive); GI50 (ACHN): 11.8 µM (inactive); GI50 (CAKI-1): 13.5 µM (inactive); GI50 (CCRF-CEM): 3.61 µM (inactive); GI50 (COLO 205): 7.71 µM (inactive); GI50 (DMS-114): 14.1 µM (inactive); GI50 (DMS-273): 5.16 µM (inactive); GI50 (EKVX): 19.1 µM (inactive); GI50 (HCC 2998): 9.35 µM (inactive); GI50 (HCT-116): 7.38 µM (inactive); GI50 (HCT-15): 14.2 µM; GI50 (HL-60): 10.6 µM (inactive); GI50 (HOP-62): 14.5 µM (inactive); GI50 (HOP-92): 15.5 µM (inactive); GI50 (HT-29): 11.4 µM (inactive); GI50 (IGROV-1): 9.68 µM (inactive); GI50 (K562): 6.25 µM (inactive); GI50 (KM-20L2): 25.6 µM (inactive); GI50 (KM12): 4.34 µM (inactive); GI50 (LOX IMVI): 6.93 µM (inactive); GI50 (LXFL 529): 2.34 µM (inactive); GI50 (M14): 10.4 µM (inactive); GI50 (M19-MEL): 15.8 µM (inactive); GI50 (MOLT-4): 8.39 µM (inactive); GI50 (Malme-3M): 5.27 µM (inactive); GI50 (NCI-H226): 18.8 µM (inactive); GI50 (NCI-H23): 17 µM (inactive); GI50 (NCI-H460): 6.58 µM (inactive); GI50 (NCI-H522): 8.18 µM (inactive); GI50 (OVCAR-4): 11.5 µM (inactive); GI50 (OVCAR-5): 18.7 µM (inactive); GI50 (OVCAR-8): 6.73 µM (inactive); GI50 (RPMI-8226): 13.2 µM (inactive); GI50 (RXF 393): 2 µM (inactive); GI50 (SF-268): 10 µM (inactive); GI50 (SF-295): 23.8 µM (inactive); GI50 (SF-539): 3.6 µM (inactive); GI50 (SK-MEL-28): 12.9 µM (inactive); GI50 (SK-MEL-2): 4.58 µM (inactive); GI50 (SK-MEL-5): 15.4 µM (inactive); GI50 (SK-OV-3): 13.7 µM (inactive); GI50 (SN12C): 6.68 µM (inactive); GI50 (SNB-19): 11 µM (inactive); GI50 (SNB-75): 4.28 µM (inactive); GI50 (SNB-78): 7.36 µM (inactive); GI50 (SR): 10.7 µM (inactive); GI50 (SW-620): 3.64 µM (inactive); GI50 (TK-10): 8.3 µM (inactive); GI50 (U-251): 8.13 µM (inactive); GI50 (UACC-257): 14.4 µM (inactive); GI50 (UACC-62): 8.95 µM (inactive); GI50 (UO-31): 13.8 µM (inactive)

— ChEMBL document CHEMBL1201862, “PubChem BioAssay data set” (2004)
